Consider 4 compounds from PubChem BioAssay AID1259407 (Chemical Carcinogenesis Research Information System (CCRIS), 2018).

This series concerns CCRIS mutagenicity, Ames/micronucleus/aberration tests. The series can be described thus: CCRIS mutagenicity studies.
[1] abbreviates: Test System: AMES SALMONELLA TYPHIMURIUM, Strain/Indicator: TA98, Metabolic Activation: NONE, Method: PREINCUBATION
[2] abbreviates: Test System: AMES SALMONELLA TYPHIMURIUM, Strain/Indicator: TA100, Metabolic Activation: NONE, Method: PREINCUBATION
Setting [3] is: Test System: MOUSE LYMPHOMA, Strain/Indicator: L5178Y (TK+/TK-), Metabolic Activation: NONE, Method: SUSPENSION/PLATE.
The mark [4] stands for this setting: Test System: AMES SALMONELLA TYPHIMURIUM, Strain/Indicator: TA98, Metabolic Activation: NONE, Method: STANDARD PLATE.
[5] abbreviates: Test System: AMES SALMONELLA TYPHIMURIUM, Strain/Indicator: TA98, Metabolic Activation: RAT, LIVER, S-9, AROCLOR 1254, Method: STANDARD PLATE.

“Also recorded” adds a separate entry of the source. Active and inactive are the calls of the source. No rule for the calls is given here.

On to `NS(=O)(=O)c1cc(C(=O)O)c(NCc2ccco2)cc1Cl`, for which the mutagenic call is, setting by setting: (End Point: IN VITRO CHROMOSOMAL ABERRATIONS, Test System: CHO CELLS, Metabolic Activation: NONE) “active; positive; precipitation occurred at 3750 and 5000 ug/ml; also recorded: active; positive; precipitation occurred at 2513 ug/ml”; (End Point: IN VITRO CHROMOSOMAL ABERRATIONS, Test System: CHO CELLS, Metabolic Activation: RAT, LIVER, S-9, AROCLOR 1254) “active; positive; precipitation occurred at all doses”; (Test System: AMES SALMONELLA TYPHIMURIUM, Strain/Indicator: TA98, Metabolic Activation: HAMSTER, LIVER, S-9, AROCLOR 1254 (10%), Method: PREINCUBATION) “inactive; negative”; (Test System: AMES SALMONELLA TYPHIMURIUM, Strain/Indicator: TA98, Metabolic Activation: HAMSTER, LIVER, S-9, AROCLOR 1254, Method: PREINCUBATION) “inactive; negative”; under setting [1], “inactive; negative”; (Test System: AMES SALMONELLA TYPHIMURIUM, Strain/Indicator: TA98, Metabolic Activation: RAT, LIVER, S-9, AROCLOR 1254 (10%), Method: PREINCUBATION) “inactive; negative”. Further, the mutagenic call is, setting by setting: (Test System: AMES SALMONELLA TYPHIMURIUM, Strain/Indicator: TA98, Metabolic Activation: RAT, LIVER, S-9, AROCLOR 1254, Method: PREINCUBATION) “inactive; negative”; (Test System: AMES SALMONELLA TYPHIMURIUM, Strain/Indicator: TA100, Metabolic Activation: HAMSTER, LIVER, S-9, AROCLOR 1254 (10%), Method: PREINCUBATION) “inactive; negative”; (Test System: AMES SALMONELLA TYPHIMURIUM, Strain/Indicator: TA100, Metabolic Activation: HAMSTER, LIVER, S-9, AROCLOR 1254, Method: PREINCUBATION) “inactive; negative”; under setting [2], “inactive; negative”; (Test System: AMES SALMONELLA TYPHIMURIUM, Strain/Indicator: TA100, Metabolic Activation: RAT, LIVER, S-9, AROCLOR 1254 (10%), Method: PREINCUBATION) “inactive; negative”; (Test System: AMES SALMONELLA TYPHIMURIUM, Strain/Indicator: TA100, Metabolic Activation: RAT, LIVER, S-9, AROCLOR 1254, Method: PREINCUBATION) “inactive; negative”. The mutagenic call (Test System: AMES SALMONELLA TYPHIMURIUM, Strain/Indicator: TA1535, Metabolic Activation: HAMSTER, LIVER, S-9, AROCLOR 1254 (10%), Method: PREINCUBATION) was “inactive; negative”; the mutagenic call (Test System: AMES SALMONELLA TYPHIMURIUM, Strain/Indicator: TA1535, Metabolic Activation: HAMSTER, LIVER, S-9, AROCLOR 1254, Method: PREINCUBATION) was “inactive; negative”; the mutagenic call (Test System: AMES SALMONELLA TYPHIMURIUM, Strain/Indicator: TA1535, Metabolic Activation: NONE, Method: PREINCUBATION) was “inactive; negative”; the mutagenic call (Test System: AMES SALMONELLA TYPHIMURIUM, Strain/Indicator: TA1535, Metabolic Activation: RAT, LIVER, S-9, AROCLOR 1254 (10%), Method: PREINCUBATION) is “inactive; negative”; the mutagenic call (Test System: AMES SALMONELLA TYPHIMURIUM, Strain/Indicator: TA1535, Metabolic Activation: RAT, LIVER, S-9, AROCLOR 1254, Method: PREINCUBATION) is “inactive; negative”; the mutagenic call (Test System: AMES SALMONELLA TYPHIMURIUM, Strain/Indicator: TA1537, Metabolic Activation: HAMSTER, LIVER, S-9, AROCLOR 1254 (10%), Method: PREINCUBATION) is “inactive; negative”. The mutagenic call reads like this: (Test System: AMES SALMONELLA TYPHIMURIUM, Strain/Indicator: TA1537, Metabolic Activation: HAMSTER, LIVER, S-9, AROCLOR 1254, Method: PREINCUBATION) “inactive; negative”; (Test System: AMES SALMONELLA TYPHIMURIUM, Strain/Indicator: TA1537, Metabolic Activation: NONE, Method: PREINCUBATION) “inactive; negative”; (Test System: AMES SALMONELLA TYPHIMURIUM, Strain/Indicator: TA1537, Metabolic Activation: RAT, LIVER, S-9, AROCLOR 1254 (10%), Method: PREINCUBATION) “inactive; negative”; (Test System: AMES SALMONELLA TYPHIMURIUM, Strain/Indicator: TA1537, Metabolic Activation: RAT, LIVER, S-9, AROCLOR 1254, Method: PREINCUBATION) “inactive; negative”; under setting [3], “inactive; negative”; (Test System: MOUSE LYMPHOMA, Strain/Indicator: L5178Y (TK+/TK-), Metabolic Activation: RAT, LIVER, S-9, AROCLOR 1254, Method: SUSPENSION/PLATE) “active; positive”.

In the case of `C=C1CC/C=C(/C)CC[C@@H]2[C@@H]1CC2(C)C`, the mutagenic call was “inactive; negative” (Test System: AMES SALMONELLA TYPHIMURIUM, Strain/Indicator: TA98, Metabolic Activation: HAMSTER, LIVER, S-9, AROCLOR 1254, Method: STANDARD PLATE); “inactive; negative” under setting [4]; “inactive; negative” under setting [5]; “inactive; negative” (Test System: AMES SALMONELLA TYPHIMURIUM, Strain/Indicator: TA100, Metabolic Activation: HAMSTER, LIVER, S-9, AROCLOR 1254, Method: STANDARD PLATE); “inactive; negative” (Test System: AMES SALMONELLA TYPHIMURIUM, Strain/Indicator: TA100, Metabolic Activation: NONE, Method: STANDARD PLATE); “inactive; negative” (Test System: AMES SALMONELLA TYPHIMURIUM, Strain/Indicator: TA100, Metabolic Activation: RAT, LIVER, S-9, AROCLOR 1254, Method: STANDARD PLATE). For the same compound, the mutagenic call (Test System: AMES SALMONELLA TYPHIMURIUM, Strain/Indicator: TA102, Metabolic Activation: HAMSTER, LIVER, S-9, AROCLOR 1254, Method: STANDARD PLATE) is “inactive; negative”; the mutagenic call (Test System: AMES SALMONELLA TYPHIMURIUM, Strain/Indicator: TA102, Metabolic Activation: NONE, Method: STANDARD PLATE) is “inactive; negative”; the mutagenic call (Test System: AMES SALMONELLA TYPHIMURIUM, Strain/Indicator: TA102, Metabolic Activation: RAT, LIVER, S-9, AROCLOR 1254, Method: STANDARD PLATE) is “inactive; negative”; the mutagenic call (Test System: AMES SALMONELLA TYPHIMURIUM, Strain/Indicator: TA1535, Metabolic Activation: HAMSTER, LIVER, S-9, AROCLOR 1254, Method: STANDARD PLATE) was “inactive; negative”; the mutagenic call (Test System: AMES SALMONELLA TYPHIMURIUM, Strain/Indicator: TA1535, Metabolic Activation: NONE, Method: STANDARD PLATE) is “inactive; negative”; the mutagenic call (Test System: AMES SALMONELLA TYPHIMURIUM, Strain/Indicator: TA1535, Metabolic Activation: RAT, LIVER, S-9, AROCLOR 1254, Method: STANDARD PLATE) is “inactive; negative”. For the same compound, the mutagenic call is, setting by setting: (Test System: AMES SALMONELLA TYPHIMURIUM, Strain/Indicator: TA1537, Metabolic Activation: HAMSTER, LIVER, S-9, AROCLOR 1254, Method: STANDARD PLATE) “inactive; negative”; (Test System: AMES SALMONELLA TYPHIMURIUM, Strain/Indicator: TA1537, Metabolic Activation: NONE, Method: STANDARD PLATE) “inactive; negative”; (Test System: AMES SALMONELLA TYPHIMURIUM, Strain/Indicator: TA1537, Metabolic Activation: RAT LIVER, S-9, AROCLOR 1254, Method: STANDARD PLATE) “inactive; negative”; under setting [3], “inactive; positive; reevaluation of results: negative”; (Test System: Mouse lymphoma, Strain/Indicator: L5178Y (tk+/tk-), Metabolic Activation: Rat, Liver, S-9, Aroclor 1254, Method: Suspension/plate) “equivocal”.

Turning to `CN1CCNCC1`, the mutagenic call runs as follows: under setting [1], “inactive; negative”; (Test System: AMES SALMONELLA TYPHIMURIUM, Strain/Indicator: TA98, Metabolic Activation: RAT, LIVER, S-9, PCB, Method: PREINCUBATION) “inactive; negative”; under setting [2], “inactive; negative”; (Test System: AMES SALMONELLA TYPHIMURIUM, Strain/Indicator: TA100, Metabolic Activation: RAT, LIVER, S-9, PCB, Method: PREINCUBATION) “inactive; negative”.

Turning to `O=[N+]([O-])c1ccc2c3ccccc3c3c([N+](=O)[O-])ccc4ccc1c2c43`, the mutagenic call runs as follows: under setting [4], “active; positive”; under setting [5], “active; positive”.
